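1) Cells in 96-well plates. 2) Compound, 48 h, 5 concentrations. 3) Linear interpolation between surrounding doses. 4) Unreached endpoint = highest concentration. GI50 is the concentration that inhibits growth by half. At the TGI there is no net growth.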
Tests used:
Test in all cases: NCI anticancer screen, dose series, 48 h
OVCAR-5 ovarian = test system: OVCAR-5 ovarian
HCT-116 colon = test system: HCT-116 colon
NCI-H460 lung = test system: NCI-H460 lung
SK-MEL-2 melanoma = test system: SK-MEL-2 melanoma
SF-539 CNS = test system: SF-539 CNS
A498 renal = test system: A498 renal
RPMI-8226 leukemia = test system: RPMI-8226 leukemia
SNB-75 CNS = test system: SNB-75 CNS
HCC-2998 colon = test system: HCC-2998 colon
MCF7 breast = test system: MCF7 breast

Row | SMILES | TGI (OVCAR-5 ovarian) [µM] | TGI (HCT-116 colon) [µM] | TGI (NCI-H460 lung) [µM] | TGI (SK-MEL-2 melanoma) [µM] | TGI (SF-539 CNS) [µM] | TGI (A498 renal) [µM] | TGI (RPMI-8226 leukemia) [µM] | TGI (SNB-75 CNS) [µM] | TGI (HCC-2998 colon) [µM] | TGI (MCF7 breast) [µM] | GI50 (OVCAR-5 ovarian) [µM] | GI50 (HCT-116 colon) [µM] | GI50 (NCI-H460 lung) [µM] | GI50 (SK-MEL-2 melanoma) [µM] | GI50 (SNB-75 CNS) [µM] | GI50 (SF-539 CNS) [µM] | GI50 (A498 renal) [µM] | GI50 (MCF7 breast) [µM]
1 | Cc1ccc(-n2cc(-c3ccc(Cl)cc3)c3c(NNC(=S)NCc4ccccc4)ncnc32)cc1 | 48.6 | 16.8 | 12.4 | 20.1 | 30.7 | 82.1 | > 100 | – | – | – | – | – | – | – | – | – | – | –
2 | CC1=CC(=O)C[C@]2(C)[C@@H](O)CC(C(C)CO)C[C@@H]12 (stereo partly drawn) | > 100 | > 100 | > 100 | > 100 | > 100 | > 100 | – | > 100 | > 100 | > 100 | – | – | – | – | – | – | – | –
3 | CC1(C)CC(=O)C2=C(C1)OC1=C(CC(C)(C)CC1=O)C2c1ccccc1Cl (stereo not drawn) | > 100 | > 100 | > 100 | > 100 | > 100 | > 100 | > 100 | > 100 | > 100 | – | – | – | – | – | – | – | – | –
4 | C=CC(C)(C)c1cc([C@@H]2COc3cc(O)ccc3C2=O)c(O)c(OC)c1OC | 50.4 | 24.5 | 41.7 | 33.3 | 44 | 35.4 | – | 25.6 | 34.3 | 31.8 | – | – | – | – | – | – | – | –
5 | O=C(Cl)c1cc([N+](=O)[O-])cc([N+](=O)[O-])c1 | > 100 | > 100 | > 100 | > 100 | > 100 | – | > 100 | > 100 | > 100 | – | – | – | – | – | – | – | – | –
6 | COC[C@H](Cc1ccccc1)N=Cc1ccccc1 | > 100 | > 100 | > 100 | > 100 | – | – | > 100 | > 100 | > 100 | > 100 | – | – | – | – | – | – | – | –
7 | O=C(CSCC(=O)N/N=C\c1cc(Br)cc(Br)c1O)N/N=C\c1cc(Br)cc(Br)c1O | > 100 | > 100 | > 100 | 42.7 | 78.8 | – | – | > 100 | – | > 100 | – | – | – | – | – | – | – | –
8 | O=S(=O)(CC#CCS(=O)(=O)c1ccccc1)c1ccccc1 | 19.7 | 2.39 | 38.9 | 19.4 | 6.86 | 36.3 | – | 5.55 | 35.8 | 6.7 | – | – | – | – | – | – | – | –
9 | CC(C)CCC[C@@H](C)[C@H]1CC[C@H]2[C@@H]3CC=C4CC(OCCCCN(O)CCCSC5OC(CO)C(O)C(O)C5O)CC[C@]4(C)[C@H]3CC[C@]12C (stereo partly drawn) | > 100 | > 100 | > 100 | 92.1 | 32.8 | > 100 | > 100 | > 100 | – | – | – | – | – | – | – | – | – | –
10 | COc1ccc2c(c1)CCC1C2CCC2(C)C1CC[C@@]2(O)CNC(=O)/C=C/c1ccc(O)c(O)c1 (stereo partly drawn) | > 100 | 19.2 | > 100 | 29.7 | 6.75 | 39.8 | – | 7.18 | – | > 100 | 16.5 | 2.95 | 2.69 | 5.59 | 2.65 | 2.08 | 18.8 | 3.66
11 | CCO/C=N/C1=C(C#N)C(c2ccc(OC)c(OC)c2)c2c(-c3ccccc3)nn(-c3ccccc3)c2O1 (stereo not drawn) | 52.6 | 28.3 | > 100 | 43.8 | 33.7 | – | > 100 | 34.2 | > 100 | 53.1 | – | – | – | – | – | – | – | –
12 | CC(C)Oc1c(O)c2c3c(oc(=O)n3C=CC2c2ccccc2F)c1OC(C)C (stereo not drawn) | 42.9 | 66.7 | > 100 | 34.5 | 52.6 | > 100 | 51.9 | > 100 | – | > 100 | – | – | – | – | – | – | – | –
13 | CCOC(=O)C1(C/C=C\CBr)CCCCCCC1=O (stereo not drawn) | > 100 | > 100 | – | > 100 | > 100 | > 100 | – | > 100 | – | > 100 | – | – | – | – | – | – | – | –
14 | OB1OCc2ccccc21 | – | > 100 | > 100 | > 100 | 64.4 | > 100 | 45.9 | – | – | 82.1 | – | – | – | – | – | – | – | –
15 | COC(=O)C1(C(=O)OC)CC2=C(S(=O)(=O)c3ccccc3)C[C@@H](C#N)[C@H]2C1 | > 100 | > 100 | > 100 | > 100 | > 100 | > 100 | – | > 100 | 31.2 | > 100 | – | – | – | – | – | – | – | –
16 | CCCCCCCCCCCCCCCCCc1nc(C#N)c(N)o1 | > 100 | > 100 | – | > 100 | – | > 100 | 52 | 70.2 | – | > 100 | – | – | – | – | – | – | – | –
17 | C=C(Cl)C(Cl)(CBr)CCC(Cl)C(C)C (stereo not drawn) | 23.9 | 5.96 | 5.47 | 4.29 | 2.59 | 14.4 | – | 5.66 | 15.2 | 2.57 | – | – | – | – | – | – | – | –
18 | CC(C)(C)C(=O)Cc1cc2c(cc1C(=O)O)S(=O)(=O)NC(C(C)(C)C)=C2 | > 100 | > 100 | > 100 | > 100 | – | > 100 | > 100 | > 100 | – | – | – | – | – | – | – | – | – | –
19 | COc1ccc(C2Oc3cc(OC)c(O)cc3[C@@H]2C)cc1 (stereo partly drawn) | > 100 | 25.9 | > 100 | > 100 | > 100 | > 100 | 58.2 | 96.6 | > 100 | – | – | – | – | – | – | – | – | –
20 | Nc1nc(NC(=O)C2=NS(=O)(=O)c3cc(S(N)(=O)=O)c(Cl)cc3N2)n[nH]1 | > 100 | > 100 | > 100 | – | > 100 | > 100 | > 100 | > 100 | > 100 | – | – | – | – | – | – | – | – | –
21 | C[C@H]1C(=O)C2=C[C@H]1CCC(=O)[C@]1(C)CCCC(C)(C)[C@H]1C[C@H]2O | > 100 | > 100 | 58.9 | > 100 | 28.8 | > 100 | 34.2 | 82.8 | – | 27.3 | – | – | – | – | – | – | – | –
22 | O=c1n(CCO)nc2n1CCCN2 | > 100 | > 100 | > 100 | > 100 | > 100 | – | > 100 | > 100 | > 100 | > 100 | – | – | – | – | – | – | – | –
23 | O=C(C(=O)n1ccc2ccccc21)c1c[nH]c2ccccc12 | > 10 | > 10 | > 10 | > 10 | > 10 | – | > 10 | > 10 | > 10 | > 10 | – | – | – | – | – | – | – | –
